Assay results as given in patent EP4692071A1, “PHOTOCHROMIC COMPOUND, NAPHTHOL DERIVATIVE, CURABLE COMPOSITION, OPTICAL ARTICLE, LENS, AND EYEGLASS” (TOKUYAMA CORPORATION, priority 2023, dated 2024).
Where “and” joins values, the source holds several entries; their conditions need not be identical. Equal values may be shown once. Blank lines part the entries; values can stand above or below the molecule they belong to.

Assays:
Assay type in all cases: physicochemical
[1] = 23°C color optical density (A23): absorbancy difference ε(240)-ε(0) after 240 s light irradiation at 23°C; conditions: 240 s irradiation; for 23°C color optical density (-): comparative compounds
Description: (§1) • [1] Maximum Absorption Wavelength (λmax): The maximum absorption wavelength after color development, measured using a spectrophotometer (instantaneous multichannel photodetector MCPD3000) manufactured by Otsuka Electronics Co., Ltd. was used as an indicator for the color tone during the color development. • [2] 23°C Color Optical Density (A23): A difference between an absorbancy measured after light irradiation at 23°C for 240 seconds {ε(240)} and an absorbancy without light irradiation ε(0) at the maximum absorption wavelength was used as an indicator for the color optical density. […] 35°C Color Optical Density (A35): A difference between an absorbancy measured after light irradiation at 35°C for 240 seconds {ε(240)} and an absorbancy without light irradiation ε(0) at the first and second absorption wavelengths was used as an indicator for the color optical density. […] 23°C color fading half-life [τ1/2 (sec.)]: A time required for the absorbancy of the sample at the maximum absorption wavelength to decrease to 1/2 of {ε(240)-ε(0)} when the light irradiation is terminated after the light irradiation at 23°C for 240 seconds, was used as an indicator for the color fading speed. The shorter this time, the higher the color fading speed. • [6] Residual rate (A90/A0×100): The obtained photochromic plastic lens was subjected to accelerated deterioration using a xenon weather meter X25 manufactured by Suga Test Instruments Co., Ltd. for 90 hours. Subsequently, the color optical density was evaluated before and after the test, then a color optical density before the test (A0) and a color optical density after the test (A90) were measured, and a ratio (A90/A0) was defined as a residual rate. The residual rate was used as an indicator for a color developing durability. The higher the residual rate, the higher the color developing durability.

[2] = High-temperature color development rate (A35/A23×100), temperature dependency
Description: as §1

[3] = Residual rate (A90/A0×100) after 90 h accelerated deterioration in xenon weather meter X25, color developing durability; conditions: for Residual rate (%): xenon weather meter 90 hours; for Residual rate: after 90 h accelerated deterioration
Description: as §1

[4] = 35°C color optical density (A35): absorbancy difference ε(240)-ε(0) after 240 s light irradiation at 35°C; conditions: 240 s irradiation; for 35°C color optical density (-): comparative compounds
Description: as §1

[5] = Maximum absorption wavelength (λmax) after color development, spectrophotometer MCPD3000; conditions: for Maximum absorption wavelength: after color development
Description: as §1

[6] = cured product by kneading method, 1 mm
[7] = photochromic laminate by coating method, at the maximum absorption wavelength
[8] = photochromic laminate by coating method
[9] = binder sheet (binder method), urethaneurea resin photochromic layer between polycarbonate sheets, 0.25 mmol per 100 parts by mass resin
[10] = photochromic cured product by kneading method, 1 mm thick thiourethane, 0.106 mmol per 100 g monomers
[11] = photochromic laminate by coating method, 40 µm photochromic layer on thiourethane lens, 0.25 mmol compound per 100 g monomers
[12] = binder sheet (binder method), at 474 nm absorption maximum
[13] = binder sheet (binder method), at 566 nm absorption maximum
[14] = photochromic laminate by coating method, absorption band at 474 nm
[15] = photochromic laminate by coating method, absorption band at 567 nm
[16] = binder sheet (binder method), absorption peak at 474 nm
[17] = binder sheet (binder method), absorption peak at 566 nm
[18] = photochromic cured product, thickness 1 mm (kneading method), absorption band at 476 nm
[19] = photochromic cured product, thickness 1 mm (kneading method), absorption band at 573 nm
[20] = photochromic laminate prepared by coating method, absorption band at 474 nm
[21] = photochromic laminate prepared by coating method, absorption band at 567 nm

Structure (SMILES): CCCCOc1ccc(C2(c3ccc(OC)cc3)C=Cc3c4c(c5cc(N(C)c6ccccc6)c(OC)cc5c3O2)-c2ccc(-c3ccc(C(C)(C)C)cc3)cc2C4(CC)CC)cc1 (stereo not shown) [Example 45 Formula (94)]
- A23 (-) ([1]; binder sheet (binder method)): 1.24 -
- A23 (-) [1, 7]: 1.21 -
- A35/A23 *100 (%) ([2]; binder sheet (binder method)): 71%
- A35/A23 *100 (%) [2, 8]: 71%
- Residual rate (%) ([3]; binder sheet (binder method)): 92%
- Residual rate (%) [3, 8]: 80%
- A35 (-) ([4]; binder sheet (binder method)): 0.88 -
- A35 (-) [4, 8]: 0.86 -
- Maximum absorption wavelength (nm) [5, 9]: 506 nm
- Maximum absorption wavelength (nm) [5, 11]: 506 nm

Structure (SMILES): CCCCC1(CCCC)c2cc([Si](C)(C)C(C)(C)C)ccc2-c2c1c1c(c3cc(OC)c(N(CC)c4ccccc4)cc23)OC(c2ccc(OC)cc2)(c2ccc(OCCC)cc2)C=C1 (stereo not shown) [Example 46 Formula (99)]
- A23 (-) [1, 7]: 1.29 -
- A35/A23 *100 (%) [2, 8]: 70%
- Residual rate (%) [3, 8]: 78%
- A35 (-) [4, 8]: 0.90 -
- Maximum absorption wavelength (nm) [5, 11]: 504 nm

Structure (SMILES): COCCOCCOCCC1(CCOCCOCCOC)c2cc(-c3ccc(OC(C)C)cc3)ccc2-c2c1c1c(c3cc(OC)c(N(C)c4ccc(C(F)(F)F)cc4)cc23)OC(c2ccc(OC)cc2)(c2ccc(OC)cc2)C=C1 [Example 53 Formula (121)]
- A23 (-) [1, 7]: 0.75 - and 0.82 -
- A35/A23 *100 (%) [2, 8]: 66%
- Residual rate (%) [3, 8]: 76%
- A35 (-) [4, 8]: 0.49 - and 0.54 -
- Maximum absorption wavelength (nm) [5, 11]: 457 nm and 592 nm

Structure (SMILES): CCCCCCCCC1(CCCCCCCC)c2cc([Si](c3ccccc3)(c3ccccc3)c3ccccc3)ccc2-c2c1c1c(c3cc(OC)c(N(c4ccccc4)c4ccccc4)cc23)OC(c2ccc(OCCC)cc2)(c2ccc(OCCC)cc2)C=C1 [Example 56 Formula (128)]
- A23 (-) [1, 7]: 1.80 -
- A35/A23 *100 (%) [2, 8]: 69%
- Residual rate (%) [3, 8]: 81%
- A35 (-) [4, 8]: 1.24 -
- Maximum absorption wavelength (nm) [5, 11]: 508 nm

Further lines, results first:

- A23 (-) ([1]; binder sheet (binder method)): 1.36 -
- A23 (-) [1, 6]: 1.37 -
- A23 (-) [1, 7]: 1.34 -
- A35/A23 *100 (%) ([2]; binder sheet (binder method)): 67%
- A35/A23 *100 (%) [2, 6]: 67%
- A35/A23 *100 (%) [2, 8]: 67%
- Residual rate (%) ([3]; binder sheet (binder method)): 91%
- Residual rate (%) [3, 6]: 83%
- Residual rate (%) [3, 8]: 77%
- A35 (-) ([4]; binder sheet (binder method)): 0.91 -
- A35 (-) [4, 6]: 0.91 -
- A35 (-) [4, 8]: 0.90 -
- Maximum absorption wavelength (nm) [5, 9]: 515 nm
- Maximum absorption wavelength (nm) [5, 10]: 519 nm
- Maximum absorption wavelength (nm) [5, 11]: 515 nm
Structure (SMILES): COc1ccc(C2(c3ccc(OC)cc3)C=Cc3c4c(c5cc(N6CCOc7ccccc76)c(OC)cc5c3O2)-c2ccccc2C4(C)C)cc1 [Example 19 Formula (83)]

- A23 (-) ([1]; binder sheet (binder method)): 1.23 -
- A23 (-) [1, 6]: 1.24 -
- A23 (-) [1, 7]: 1.22 -
- A35/A23 *100 (%) ([2]; binder sheet (binder method)): 70%
- A35/A23 *100 (%) [2, 6]: 70%
- A35/A23 *100 (%) [2, 8]: 70%
- Residual rate (%) ([3]; binder sheet (binder method)): 93%
- Residual rate (%) [3, 6]: 85%
- Residual rate (%) [3, 8]: 81%
- A35 (-) ([4]; binder sheet (binder method)): 0.86 -
- A35 (-) [4, 6]: 0.87 -
- A35 (-) [4, 8]: 0.85 -
- Maximum absorption wavelength (nm) [5, 9]: 503 nm
- Maximum absorption wavelength (nm) [5, 10]: 507 nm
- Maximum absorption wavelength (nm) [5, 11]: 503 nm
Structure (SMILES): CCCOc1ccc(C2(c3ccc(OCCC)cc3)C=Cc3c4c(c5cc(N(C)c6ccc(C)cc6)c(OC)cc5c3O2)-c2ccccc2C4(CCCCOC)CCCCOC)cc1 [Example 20 Formula (85)]

- A23 (-) ([1]; binder sheet (binder method)): 1.27 -
- A23 (-) [1, 7]: 1.25 -
- A35/A23 *100 (%) ([2]; binder sheet (binder method)): 66%
- A35/A23 *100 (%) [2, 8]: 66%
- Residual rate (%) ([3]; binder sheet (binder method)): 88%
- Residual rate (%) [3, 8]: 73%
- A35 (-) ([4]; binder sheet (binder method)): 0.84 -
- A35 (-) [4, 8]: 0.83 -
- Maximum absorption wavelength (nm) [5, 9]: 521 nm
- Maximum absorption wavelength (nm) [5, 11]: 521 nm
Structure (SMILES): COc1ccc(C2(c3ccc(N4CCOCC4)cc3)C=Cc3c4c(c5cc(N6CCOc7ccccc76)c(C)cc5c3O2)-c2ccc(OC)cc2C4(CCCCF)CCCCF)cc1 (stereo not shown) [Example 47 Formula (102)]

- A23 (-) ([1]; binder sheet (binder method)): 1.39 -
- A23 (-) [1, 7]: 1.36 -
- A35/A23 *100 (%) ([2]; binder sheet (binder method)): 65%
- A35/A23 *100 (%) [2, 8]: 65%
- Residual rate (%) ([3]; binder sheet (binder method)): 93%
- Residual rate (%) [3, 8]: 77%
- A35 (-) ([4]; binder sheet (binder method)): 0.90 -
- A35 (-) [4, 8]: 0.88 -
- Maximum absorption wavelength (nm) [5, 9]: 513 nm
- Maximum absorption wavelength (nm) [5, 11]: 513 nm
Structure (SMILES): CCCOc1ccc(C2(c3ccc(OCCC)cc3)C=Cc3c4c(c5cc(N6CCOc7cc(C)ccc76)c(OC)cc5c3O2)-c2ccc(-c3ccc(C(F)(F)F)cc3)cc2C4(CCOC)CCOC)cc1 [Example 48 Formula (106)]

- A23 (-) [1, 7]: 1.82 -
- A35/A23 *100 (%) [2, 8]: 74%
- Residual rate (%) [3, 8]: 79%
- A35 (-) [4, 8]: 1.34 -
- Maximum absorption wavelength (nm) [5, 11]: 518 nm
Structure (SMILES): CCCCCCC1(CCCCCC)c2cc(Oc3ccccc3)ccc2-c2c1c1c(c3cc(OC)c(N(c4ccccc4)c4ccc(C)cc4)cc23)OC(c2ccc(OC)cc2)(c2ccc(OCCCC)cc2)C=C1 (stereo not shown) [Example 52 Formula (119)]

- A23 (-) [1, 12]: 1.69 -
- A23 (-) [1, 13]: 0.85 -
- 23°C color optical density (-) [1, 14]: 1.65 -
- 23°C color optical density (-) [1, 15]: 0.83 -
- A35/A23 *100 [2, 16]: 69%
- A35/A23 *100 [2, 17]: 68%
- A35/A23 *100 (%) [2, 12]: 69%
- A35/A23 *100 (%) [2, 13]: 68%
- A35/A23 *100 (%) [2, 6]: 70%
- A35/A23 *100 ([2]; photochromic cured product, thickness 1 mm (kneading method)): 70%
- Temperature change rate (%) ([2]; photochromic laminate by coating method, comparative compounds, corresponds to A35/A23×100): 69%
- A35/A23 *100 ([2]; photochromic laminate prepared by coating method): 69%
- Residual rate [3, 16]: 70%
- Residual rate [3, 17]: 76%
- Residual rate (%) [3, 12]: 70%
- Residual rate (%) [3, 13]: 76%
- Residual rate (%) ([3]; cured product by kneading method, 1 mm, absorption peak at 476 nm): 60%
- Residual rate (%) ([3]; cured product by kneading method, 1 mm, absorption peak at 573 nm): 65%
- Residual rate [3, 18]: 60%
- Residual rate [3, 19]: 65%
- Residual rate (%) [3, 14]: 53%
- Residual rate (%) [3, 15]: 57%
- Residual rate [3, 20]: 53%
- Residual rate [3, 21]: 57%
- 35°C color optical density (-) [4, 14]: 1.14 -
- 35°C color optical density (-) [4, 15]: 0.57 -
- Maximum absorption wavelength (nm) ([5]; binder sheet (binder method), urethaneurea resin photochromic layer between polycarbonate sheets, 0.25 mmol per 100 parts by mass resin, at 474 nm absorption maximum): 474 nm
- Maximum absorption wavelength (nm) ([5]; binder sheet (binder method), urethaneurea resin photochromic layer between polycarbonate sheets, 0.25 mmol per 100 parts by mass resin, at 566 nm absorption maximum): 566 nm
- Maximum absorption wavelength [5, 16]: 474 nm
- Maximum absorption wavelength [5, 17]: 566 nm
- Maximum absorption wavelength (nm) ([5]; photochromic cured product by kneading method, 1 mm thick thiourethane, 0.106 mmol per 100 g monomers, absorption peak at 476 nm): 476 nm
- Maximum absorption wavelength (nm) ([5]; photochromic cured product by kneading method, 1 mm thick thiourethane, 0.106 mmol per 100 g monomers, absorption peak at 573 nm): 573 nm
- Maximum absorption wavelength [5, 18]: 476 nm
- Maximum absorption wavelength [5, 19]: 573 nm
- Maximum absorption wavelength (nm) ([5]; photochromic laminate by coating method, 40 µm photochromic layer on thiourethane lens, 0.25 mmol compound per 100 g monomers, absorption band at 474 nm): 474 nm
- Maximum absorption wavelength (nm) ([5]; photochromic laminate by coating method, 40 µm photochromic layer on thiourethane lens, 0.25 mmol compound per 100 g monomers, absorption band at 567 nm): 567 nm
- Maximum absorption wavelength [5, 20]: 474 nm
- Maximum absorption wavelength [5, 21]: 567 nm
Structure (SMILES): COc1ccc(C2(c3ccc(OC)cc3)C=Cc3c4c(c5cc(N6CCOCC6)c(OC)cc5c3O2)-c2ccccc2C4(C)C)cc1 [Formula (A), reference compound]
